# Test system: 4T1 (ATCC CRL-2539) tumor allograft
# Assay: In vivo phage display panning, breast carcinoma model, tumor cell homing phage
# Parameters: species or system mouse
# Conditions: tumors resected 24 h post phage injection, 3-4 rounds of panning
# Experimental: (§1) To identify peptide sequences displaying homing potential to specific tumors or to the vasculature of specific tumors, in vivo phage display panning was performed. Utilizing commercially available M13-based phage libraries (PhD-7 Prod# E8100S and PhD-C7C E8120S, New England Biolabs, Ipswich, Mass.) phage were isolated that were enriched after 3-4 rounds of panning in different tumor models. These phage particles display surface peptides that potentially confer homing and cellular uptake capabilities.
# Panning was conducted in 4T1 (ATCC CRL-2539) tumor allograft bearing mice. Tumors were resected 24 h post phage injection.
row,Compound,Frequency of enriched sequence
1,15 (KWGSNNL; Breast Carcinoma homing probe) [compound 15],4/12
2,16 (YSMPAPV; Breast Carcinoma homing probe) [compound 16],2/12
3,17 (DSTRPHY; Breast Carcinoma homing probe) [compound 17],2/12
4,18 (KYESAPT; Breast Carcinoma homing probe) [compound 18],1/12
5,19 (TSMTSYR; Breast Carcinoma homing probe) [compound 19],1/12
6,20 (EKNLTRP; Breast Carcinoma homing probe) [compound 20],1/12
7,21 (HTPMALE; Breast Carcinoma homing probe) [compound 21],1/12

# Test system: SVR (ATCC CRL-2280, a murine endothelial cell line) tumor allograft
# Assay: In vivo phage display panning, angiosarcoma model
# Parameters: species or system mouse
# Conditions: tumors resected 24 h post phage injection, 3-4 rounds of panning
# Experimental: as §1
# Panning was conducted in SVR (ATCC CRL-2280, a murine endothelial cell line) tumor allograft bearing mice. Tumors were resected 24 h post phage injection.
row,Compound,Frequency of enriched sequence
1,10 (FPGGYTP; Angiosarcoma homing probe) [compound 10],11/15
2,11 (MFEPVLP; Angiosarcoma homing probe) [compound 11],1/15
3,12 (TLSKQST; Angiosarcoma homing probe) [compound 12],1/15
4,13 (TSLKMQV; Angiosarcoma homing probe) [compound 13],1/15
5,14 (ERVLMQV; Angiosarcoma homing probe) [compound 14],1/15

# Test system: 4T1 (ATCC CRL-2539) tumor allograft
# Assay: In vivo phage display panning, breast carcinoma model, tumor vascular homing phage
# Parameters: species or system mouse
# Conditions: tumors resected 5-7 h post phage injection, 3-4 rounds of panning
# Experimental: as §1
# Panning was conducted in 4T1 (ATCC CRL-2539) tumor allograft bearing mice. Tumors were resected 5-7 h post phage injection.
row,Compound,Frequency of enriched sequence
1,22 (GHSKAMY; Breast carcinoma tumor vascular homing probe) [compound 22],4/12
2,23 (GHGASIS; Breast carcinoma tumor vascular homing probe) [compound 23],1/12
3,24 (NLLAPAG; Breast carcinoma tumor vascular homing probe) [compound 24],1/12
4,25 (HDLPAVR; Breast carcinoma tumor vascular homing probe) [compound 25],1/12
5,26 (AMPLPVP; Breast carcinoma tumor vascular homing probe) [compound 26],1/12
6,27 (HESTWGP; Breast carcinoma tumor vascular homing probe) [compound 27],1/12
7,28 (CDPRNPNWC; Breast carcinoma tumor vascular homing probe) [compound 28],1/12
8,29 (CLPRHDPYC) [compound 29],1/12
9,30 (CPAGQNAHC) [compound 30],1/12

# Test system: tumor endothelium of high-grade malignant glioma
# Assay: Accumulation of FITC-labeled Grp78-GMBS-ASId1 in high-grade malignant glioma mouse model
# Type: in vivo
# Conditions: retro-orbital injection, four hours post injection
# Excerpt: In a further specific example, the therapeutic agent combines a Grp78 targeting peptide with an Id1 targeting antisense oligonucleotide. A therapeutic agent of this type was synthesized using the Grp-78 targeting peptide of Seq. ID No. 4, GMBS as the HBL, and Id1 antisense of Seq. ID No. 2, labeled with FITC and injected retro-orbitally into a mouse model with a high-grade malignant glioma. Four hours post injection the mouse was sacrificed, and tissue was processed for imaging.
Compound,accumulation in imaged tissue,blood brain barrier crossing
"Grp78-GMBS-ASId1: Grp-78 targeting peptide of Seq. ID No. 4, GMBS as the HBL, Id1 antisense of Seq. ID No. 2, labeled with FITC (chain WIFPWIQL; antisense gcaccagctccttgaggcgugag; GMBS linker, FITC label; GRP78 homing peptide; antisense oligonucleotide targeting ID1.)",accumulate around tumor blood vessels,crossed the blood brain barrier

# Test system: MMTV-HER2/neu (YD) Id1−/− tumor cells
# Assay: MMTV-HER2/neu (YD) Id1−/− allograft model, osmotic pumps, with and without 17-AAG
# Type: in vivo, mouse
# Conditions: Id1-PCAO 7 nmol/d s.c. pumps; F3 and Id1-AO each 20 nmol/d; 17-AAG i.p. 3 consecutive days per week; FIG. 7
# Excerpt: Proc Natl Acad Sci USA 100, 12337-42 (2003)), perhaps due to the requirement of Hsp90 for maintaining Hif1-alpha or HER2/neu stability. Id1-PCAOs were therefore tested in combination with 17-AAG in the MMTV-HER2/neu (YD) Id1-/- allograft model. The Id1-PCAO was delivered in this prolonged experiment via subcutaneously implanted osmotic pumps (7 nmol/d). 17-AAG was given by intraperitoneal injection according to an established protocol, on 3 consecutive days per week after tumor establishment. As controls, saline or the un-conjugated components of the Id1-PCAO (F3-peptide and Id1-AO each at 20 nmol/d) were administered. […] To further control for non-specific effects we repeated the experiment using the same tumor model and added […] which was delivered at the same rate as the Id1-PCAO (7 nmol/d) and the F3-peptide without addition of Id1-AO (20 nmol/d) as control substances. […] The decrease in Id1-positive cells after administration of Id1-PCAO alone was less dramatic than in the intravenous protocol described above. This might be due to the slight decrease in dosage and the changed route of administration (s.c. vs. i.v.). […] Alternatively, animals were implanted s.c. with osmotic pumps (Durect Corp., Cupertino, Calif.) that delivered 7 nmol/d Id1-PCAO (3.5 mg/kg BW) in TBS over a 14 day period. Controls received 20 nmol/d F3-peptide plus 20 nmol/d Id1-AO (in TBS) or TBS. 2×106 MMTV-HER2/neu (YD) Id1-/- tumor cells were injected into the left flank 24 h after implantation of the pumps. After the 14 days treatment period, pumps were replaced using a model with a work period of 7 days. […] Control animals received DMSO:EPL 1:1 i.p at the same schedule. Tumor size was measured using a calliper. Volume was calculated as V=(/6×longest diameter×perpendicular diameter2). Image acquisition and analysis: Epifluorescence, bright field and phase contrast images were acquired using Zeiss Axiostar 200 microscopes. Leica laser confocal microscopes were used for co-localisation studies. For quantification, large fields of the tissue sections were acquired using an automated image acquisition and montaging system (Zeiss Axiostar 200M microscope with MetaMorph Software, Molecular Devices, Sunnyvale, Calif.). […] Three or 4 large field images were used to quantify each section. Stained areas were quantified using MetaMorph or ImageJ software (http://rsb.info.nih.gov/ij/). Images were threshholded and stained area (CD31) was calculated or particles per field were counted (Id1 or Hif1 positive cells). To quantify extent of haemorrhage, H&E whole tumor sections were imaged with a 5× objective and evaluated using the colour threshold function of the Metamorph software.
row,Compound,"tumor growth, agent alone"
1,"C=CCNC1=C2C[C@@H](C)C[C@H](OC)[C@H](O)[C@@H](C)/C=C(\C)[C@H](OC(N)=O)[C@@H](OC)/C=C\C=C(/C)C(=O)NC(=CC1=O)C2=O [17-AAG, 17-(allylamino)-17-demethoxygeldanamycin]",delayed tumor growth

# Same assay, conditions: mouse, in vivo
Compound,Hif1-alpha expression,"Id1-positive endothelial cells in the tumor, agent alone",vascular density
"C=CCNC1=C2C[C@@H](C)C[C@H](OC)[C@H](O)[C@@H](C)/C=C(\C)[C@H](OC(N)=O)[C@@H](OC)/C=C\C=C(/C)C(=O)NC(=CC1=O)C2=O [17-AAG, 17-(allylamino)-17-demethoxygeldanamycin]",counteracted this response,decrease of Id1-positive endothelial cells in the tumor,decreased vascular density

# Source: patent US9393317B2, “Peptide-conjugated oligonucleotide therapeutic and method of making and using same” (Sloan-Kettering Institute for Cancer Research, priority 2008, dated 2016)
